This is an account of results in ChEMBL document CHEMBL1125452, “Rationally designed "dipeptoid" analogues of CCK. A Free-Wilson/Fujita-Ban analysis of some alpha-methyltryptophan derivatives as CCK-B antagonists” (J Med Chem, 1992).

The assay concerns the target T1, Gastrin/cholecystokinin type B receptor (Mus musculus, UniProt P56481).
T1 sequence (P56481 whole entry): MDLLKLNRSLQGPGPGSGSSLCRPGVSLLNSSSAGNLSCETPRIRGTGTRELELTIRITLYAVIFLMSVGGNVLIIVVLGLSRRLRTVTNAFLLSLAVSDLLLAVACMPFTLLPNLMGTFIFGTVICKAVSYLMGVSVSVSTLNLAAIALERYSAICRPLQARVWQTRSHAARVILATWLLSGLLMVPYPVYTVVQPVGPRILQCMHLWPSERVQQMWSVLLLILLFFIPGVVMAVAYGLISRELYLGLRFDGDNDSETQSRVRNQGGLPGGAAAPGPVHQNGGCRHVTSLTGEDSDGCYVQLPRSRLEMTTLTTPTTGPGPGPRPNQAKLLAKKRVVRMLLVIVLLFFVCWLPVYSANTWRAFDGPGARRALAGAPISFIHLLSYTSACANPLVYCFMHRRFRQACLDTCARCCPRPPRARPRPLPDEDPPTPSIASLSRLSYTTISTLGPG
Description: Cholecystokinin type B receptor binding assay performed on homogenized cerebral cortex from male mouse. The class given is tissue-based.
`C[C@](Cc1c[nH]c2ccccc12)(NC(=O)OC1C2CC3CC(C2)CC1C3)C(=O)N[C@H](CO)Cc1ccccc1` (some centres not stated): the inhibitory constant (Ki) (in general, the equilibrium dissociation constant of an inhibitor or competing ligand from its target) was 6.03 nM.

The compound `C[C@@](Cc1c[nH]c2ccccc12)(NC(=O)OC1C2CC3CC(C2)CC1C3)C(=O)N[C@H](CNC(=O)CCC(=O)O)Cc1ccccc1` (some centres not stated) had an inhibitory constant (Ki) of 166 nM. Under `O=C(O)CCC(=O)NC(CNC(=O)[C@@H](Cc1c[nH]c2ccccc12)NC(=O)OC1C2CC3CC(C2)CC1C3)c1ccccc1` (some centres not stated) stands 355 nM.

Turning to `O=C(O)CCC(=O)N[C@@H](CNC(=O)[C@H](Cc1c[nH]c2ccccc12)NC(=O)OC1C2CC3CC(C2)CC1C3)c1ccccc1` (some centres not stated), the affinity, expressed as Ki, was 977 nM. Under `CC1(C)[C@H]2CC[C@@]1(C)[C@@H](OC(=O)N[C@](C)(Cc1c[nH]c3ccccc13)C(=O)NC[C@H](NC(=O)CCC(=O)O)c1ccccc1)C2` stands 2.04 nM; under `O=C(O)C[C@@H](Cc1ccccc1)NC(=O)[C@H](Cc1c[nH]c2ccccc12)NC(=O)OC1C2CC3CC(C2)CC1C3` (some centres not stated), 93.3 nM; under `CC1(C)C2CCC1(C)[C@@H](OC(=O)N[C@@H](Cc1c[nH]c3ccccc13)C(=O)NC[C@H](NC(=O)CCC(=O)O)c1ccccc1)C2` (some centres not stated), 398 nM. The figure for `C[C@@H]1CCCC[C@H]1OC(=O)NC(C)(Cc1c[nH]c2ccccc12)C(=O)NCCc1ccccc1` (some centres not stated) is 135 nM; for `C[C@@H]1CCCC[C@H]1OC(=O)N[C@](C)(Cc1c[nH]c2ccccc12)C(=O)N[C@H](CNC(=O)/C=C/C(=O)O)Cc1ccccc1` it is 1.15 nM; for `O=C(O)C[C@@H](Cc1ccccc1)NC(=O)[C@@H](Cc1c[nH]c2ccccc12)NC(=O)OC1C2CC3CC(C2)CC1C3` (some centres not stated) it is 138 nM. Under `CC1(C)C2CCC1(C)[C@@H](OC(=O)N[C@H](Cc1c[nH]c3ccccc13)C(=O)NC[C@H](NC(=O)/C=C/C(=O)O)c1ccccc1)C2` (some centres not stated) stands 81.3 nM; under `CC(Cc1c[nH]c2ccccc12)(NC(=O)O[C@H]1CC2CCC1(C)C2(C)C)C(=O)NCCc1ccccc1` (some centres not stated), 126 nM. In the case of `C[C@](Cc1c[nH]c2ccccc12)(NC(=O)OC12CC3CC(CC(C3)C1)C2)C(=O)N[C@H](CO)Cc1ccccc1`, the affinity, expressed as Ki, was 20.4 nM. Compound `C[C@@H]1CCCC[C@H]1OC(=O)N[C@](C)(Cc1c[nH]c2ccccc12)C(=O)NC[C@H](NC(=O)CCC(=O)O)c1ccccc1` showed an inhibition constant (Ki) of 3.72 nM. The figure for `CC1(C)C2CCC1(C)C(OC(=O)N[C@](C)(Cc1c[nH]c3ccccc13)C(=O)N[C@H](CO)Cc1ccccc1)C2` (some centres not stated) is 15.5 nM; for `CC1(C)C2CCC1(C)[C@@H](OC(=O)N[C@H](Cc1c[nH]c3ccccc13)C(=O)NC[C@H](NC(=O)CCC(=O)O)c1ccccc1)C2` (some centres not stated) it is 302 nM; for `C[C@@H]1CCCC[C@H]1OC(=O)N[C@](C)(Cc1c[nH]c2ccccc12)C(=O)NC[C@H](NC(=O)/C=C/C(=O)O)c1ccccc1` it is 3.89 nM. Consider `C[C@](Cc1c[nH]c2ccccc12)(NC(=O)OC1C2CC3CC(C2)CC1C3)C(=O)NC[C@H](NC(=O)/C=C/C(=O)O)c1ccccc1` (some centres not stated), for which the Ki is 0.513 nM.

Compound `CC1(C)C2CCC1(C)[C@@H](OC(=O)N[C@](C)(Cc1c[nH]c3ccccc13)C(=O)NC[C@H](NC(=O)/C=C/C(=O)O)c1ccccc1)C2` (some centres not stated) showed a Ki of 2.19 nM. The figure for `C[C@](Cc1c[nH]c2ccccc12)(NC(=O)OC1C2CC3CC(C2)CC1C3)C(=O)N[C@H](CNC(=O)/C=C/C(=O)O)Cc1ccccc1` (some centres not stated) is 0.708 nM; for `C[C@@H]1CCCC[C@H]1OC(=O)N[C@](C)(Cc1c[nH]c2ccccc12)C(=O)N[C@H](CNC(=O)CCC(=O)O)Cc1ccccc1` it is 12.3 nM; for `C[C@](Cc1c[nH]c2ccccc12)(NC(=O)OC1C2CC3CC(C2)CC1C3)C(=O)N[C@H](CNC(=O)CCC(=O)O)Cc1ccccc1` (some centres not stated) it is 3.98 nM. The figure for `CC(Cc1c[nH]c2ccccc12)(NC(=O)OC12CC3CC(CC(C3)C1)C2)C(=O)NCCc1ccccc1` (configuration not stated) is 191 nM.

Regarding `O=C(N[C@H](Cc1c[nH]c2ccccc12)C(=O)N[C@H](CO)Cc1ccccc1)OC1C2CC3CC(C2)CC1C3` (stereo in doubt; 9), affinity was put at a Ki of 813 nM. On to `O=C(N[C@H](Cc1c[nH]c2ccccc12)C(=O)N[C@H](CO)Cc1ccccc1)OC1C2CC3CC(C2)CC1C3` (stereo in doubt; 10), for which the inhibitory constant (Ki) is 2090 nM. The figure for `C[C@@H]1CCCC[C@H]1OC(=O)N[C@](C)(Cc1c[nH]c2ccccc12)C(=O)N[C@H](CO)Cc1ccccc1` (stereo in doubt; 11) is 15.1 nM.

`C[C@@H]1CCCC[C@H]1OC(=O)N[C@](C)(Cc1c[nH]c2ccccc12)C(=O)N[C@H](CO)Cc1ccccc1` (stereo in doubt; 28): the Ki is 8.91 nM.
